From PubChem BioAssay (NCI)
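Step 1: Grow cells in 96-well plates. Step 2: Expose to compound for 48 hours at 5 concentrations. Step 3: Interpolate endpoints linearly; if unreached, use highest concentration. The concentration for 50% growth inhibition is given as GI50. TGI: concentration producing complete growth inhibition.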

What was measured:
Experiment in all cases: inhibition of tumour cell growth, NCI panel, 48 h
A498 renal = system: A498 renal
A549 NSCLC = system: A549 NSCLC
ACHN renal = system: ACHN renal
BT-549 breast = system: BT-549 breast
CAKI-1 renal = system: CAKI-1 renal
CCRF-CEM leukemia = system: CCRF-CEM leukemia
COLO 205 colon = system: COLO 205 colon
DU-145 prostate = system: DU-145 prostate
EKVX NSCLC = system: EKVX NSCLC
HCT-116 colon = system: HCT-116 colon
HCT-15 colon = system: HCT-15 colon
HL-60(TB) leukemia = system: HL-60(TB) leukemia
HOP-62 NSCLC = system: HOP-62 NSCLC
HOP-92 NSCLC = system: HOP-92 NSCLC
HS 578T breast = system: HS 578T breast
HT29 colon = system: HT29 colon
K-562 leukemia = system: K-562 leukemia
KM12 colon = system: KM12 colon
LOX IMVI melanoma = system: LOX IMVI melanoma
M14 melanoma = system: M14 melanoma
MALME-3M melanoma = system: MALME-3M melanoma
MCF7 breast = system: MCF7 breast
MDA-MB-231 breast = system: MDA-MB-231 breast
MDA-MB-435 = system: MDA-MB-435
MDA-N = system: MDA-N
MOLT-4 leukemia = system: MOLT-4 leukemia
NCI-H226 lung = system: NCI-H226 lung
NCI-H23 lung = system: NCI-H23 lung
NCI-H460 lung = system: NCI-H460 lung
NCI-H522 lung = system: NCI-H522 lung
NCI/ADR-RES ovarian = system: NCI/ADR-RES ovarian
OVCAR-3 ovarian = system: OVCAR-3 ovarian
OVCAR-4 ovarian = system: OVCAR-4 ovarian
OVCAR-8 ovarian = system: OVCAR-8 ovarian
RPMI-8226 leukemia = system: RPMI-8226 leukemia
RXF 393 renal = system: RXF 393 renal
SF-295 CNS = system: SF-295 CNS
SK-MEL-28 melanoma = system: SK-MEL-28 melanoma
SK-MEL-5 melanoma = system: SK-MEL-5 melanoma
SK-OV-3 ovarian = system: SK-OV-3 ovarian
SN12C renal = system: SN12C renal
SNB-19 CNS = system: SNB-19 CNS
SNB-75 CNS = system: SNB-75 CNS
SR leukemia = system: SR leukemia
T-47D breast = system: T-47D breast
U251 CNS = system: U251 CNS
UACC-257 melanoma = system: UACC-257 melanoma
UACC-62 melanoma = system: UACC-62 melanoma
UO-31 renal = system: UO-31 renal
786-0 renal = system: 786-0 renal
HCC-2998 colon = system: HCC-2998 colon
IGROV1 ovarian = system: IGROV1 ovarian
OVCAR-5 ovarian = system: OVCAR-5 ovarian
PC-3 prostate = system: PC-3 prostate
SF-268 CNS = system: SF-268 CNS
SF-539 CNS = system: SF-539 CNS
SW-620 colon = system: SW-620 colon
TK-10 renal = system: TK-10 renal

Nc1nc(Cl)cc(OCC2(CO)CC(OCc3ccccc3)C2)n1 (stereo not given)
GI50 (A498 renal): 58.3 µM | GI50 (A549 NSCLC): 43 µM | GI50 (ACHN renal): 41.5 µM | GI50 (BT-549 breast): 46 µM | GI50 (CAKI-1 renal): 48.2 µM | GI50 (CCRF-CEM leukemia): 41.6 µM | GI50 (COLO 205 colon): 72.5 µM | GI50 (DU-145 prostate): 66.3 µM | GI50 (EKVX NSCLC): 44.6 µM | GI50 (HCT-116 colon): 64 µM | GI50 (HCT-15 colon): 83.8 µM | GI50 (HL-60(TB) leukemia): 40 µM | GI50 (HOP-62 NSCLC): 95.7 µM | GI50 (HOP-92 NSCLC): 49.9 µM | GI50 (HS 578T breast): 34 µM | GI50 (HT29 colon): 33.9 µM | GI50 (K-562 leukemia): 36.5 µM | GI50 (KM12 colon): 55.5 µM | GI50 (LOX IMVI melanoma): 45.6 µM | GI50 (M14 melanoma): 95 µM | GI50 (MALME-3M melanoma): 84.5 µM | GI50 (MCF7 breast): 46.2 µM | GI50 (MDA-MB-231 breast): 26.2 µM | GI50 (MDA-MB-435): 69.4 µM | GI50 (MDA-N): 64.4 µM | GI50 (MOLT-4 leukemia): 22 µM | TGI (MOLT-4 leukemia): 95.5 µM | GI50 (NCI-H226 lung): 74 µM | GI50 (NCI-H23 lung): 36.5 µM | GI50 (NCI-H460 lung): 66.3 µM | GI50 (NCI-H522 lung): 47.2 µM | GI50 (NCI/ADR-RES ovarian): 45.8 µM | GI50 (OVCAR-3 ovarian): 47.1 µM | GI50 (OVCAR-4 ovarian): 47.9 µM | GI50 (OVCAR-8 ovarian): 66.6 µM | GI50 (RPMI-8226 leukemia): 26.7 µM | GI50 (RXF 393 renal): 48.6 µM | GI50 (SF-295 CNS): 50.1 µM | GI50 (SK-MEL-28 melanoma): 96.9 µM | GI50 (SK-MEL-5 melanoma): 23.9 µM | GI50 (SK-OV-3 ovarian): 61.2 µM | GI50 (SN12C renal): 76.5 µM | GI50 (SNB-19 CNS): 51.6 µM | GI50 (SNB-75 CNS): 27.9 µM | GI50 (SR leukemia): 40.6 µM | GI50 (T-47D breast): 18.9 µM | TGI (T-47D breast): 92.3 µM | GI50 (U251 CNS): 55 µM | GI50 (UACC-257 melanoma): 49.5 µM | GI50 (UACC-62 melanoma): 77.1 µM | GI50 (UO-31 renal): 40.1 µM

C[C@]12Cc3cnn(-c4ccc(F)cc4)c3NC1CC[C@@H]1C2CC[C@@]2(C)C1CC[C@@H]2O (stereo not given in full)
TGI (786-0 renal): 11.9 µM | TGI (A498 renal): 23 µM | TGI (A549 NSCLC): 30.7 µM | TGI (ACHN renal): 29.4 µM | TGI (BT-549 breast): 13.4 µM | TGI (CAKI-1 renal): 49.4 µM | TGI (CCRF-CEM leukemia): 32.6 µM | TGI (COLO 205 colon): 10.3 µM | TGI (DU-145 prostate): 27.8 µM | TGI (EKVX NSCLC): 25.4 µM | TGI (HCC-2998 colon): 18.3 µM | TGI (HCT-116 colon): 16.6 µM | TGI (HL-60(TB) leukemia): 11.8 µM | TGI (HOP-62 NSCLC): 26.1 µM | TGI (HOP-92 NSCLC): 24.7 µM | TGI (HS 578T breast): 26.5 µM | TGI (HT29 colon): 3.81 µM | TGI (IGROV1 ovarian): 28.5 µM | TGI (K-562 leukemia): 24 µM | TGI (KM12 colon): 18.3 µM | TGI (M14 melanoma): 23.1 µM | TGI (MALME-3M melanoma): 23.7 µM | TGI (MCF7 breast): 36.7 µM | TGI (MDA-MB-231 breast): 46.9 µM | TGI (MDA-MB-435): 20.8 µM | TGI (MDA-N): 21.8 µM | TGI (MOLT-4 leukemia): 16.3 µM | TGI (NCI-H226 lung): 28 µM | TGI (NCI-H23 lung): 18.7 µM | TGI (NCI-H460 lung): 16.6 µM | TGI (NCI-H522 lung): 25.4 µM | TGI (OVCAR-3 ovarian): 46.3 µM | TGI (OVCAR-4 ovarian): 27.5 µM | TGI (OVCAR-5 ovarian): 30.5 µM | TGI (OVCAR-8 ovarian): 27.9 µM | TGI (PC-3 prostate): 21.9 µM | TGI (RXF 393 renal): 5.09 µM | TGI (SF-268 CNS): 37.9 µM | TGI (SF-295 CNS): 4.38 µM | TGI (SF-539 CNS): 8.56 µM | TGI (SK-MEL-28 melanoma): 27.2 µM | TGI (SK-MEL-5 melanoma): 15 µM | TGI (SK-OV-3 ovarian): 67.9 µM | TGI (SN12C renal): 30.4 µM | TGI (SNB-19 CNS): 56.1 µM | TGI (SNB-75 CNS): 13.3 µM | TGI (SR leukemia): 12.8 µM | TGI (SW-620 colon): 13.6 µM | TGI (T-47D breast): 17 µM | TGI (TK-10 renal): 34 µM | TGI (U251 CNS): 21.7 µM | TGI (UACC-257 melanoma): 19.2 µM | TGI (UACC-62 melanoma): 23.3 µM | TGI (UO-31 renal): 22.5 µM
